# Ends that are not written are not given here.
# What was measured:
# Assay in all cases: Antibacterial MIC assay (NCCLS M7-T2 microtiter broth dilution)
# Type in all cases: cell-based
# [1] = tested on: P. aeruginosa strain ATCC 27853; conditions: P. aeruginosa ATCC 27853; Mueller Hinton broth, 16-20 hours at 37° C.; lowest concentration giving a clear well
# Excerpt: (§1) Table I, which follows, indicates the Minimal Inhibitory Concentration (MIC) in μg/ml of Peptides (SEQ ID NO:1) through (SEQ ID NO:3), (SEQ ID NO:5), (SEQ ID NO:6), (SEQ ID NO:9) through (SEQ ID NO:11), and (SEQ ID NO:17) against S.aureus strain ATCC 25923, P. aeruginosa strain ATCC 27853, and E.coli ATCC strain 25922. The procedure for the antibacterial assay is based upon the guidelines of the National Committee for Clinical Laboratory Standards, Document M7-T2, Volume 8, No. 8, 1988. Stock solutions of peptides (SEQ ID NO: 1) through (SEQ ID NO:3), (SEQ ID NO:5), (SEQ ID NO:S), (SEQ ID NO:9) through (SEQ ID NO:12), and […] in accordance with the present invention are prepared at a concentration of 512 μg/ml in sterile deionized distilled water and stored at -70° C. Each peptide is a C-terminal amide and may or may not be acetylated at the N-Terminus. An acetyl group at the N-terminus is indicated by an X. The stock peptide solution is diluted in serial dilutions (1:2) down the wells of a microtiter plate so that the final concentrations of peptides in the wells are 0.25, 0.50, i, 2,4, 8, 16, 32, 64, 128, and 256 μg/ml. 1-5×10^5 CFUs/ml of either S. aureus ATCC 25923, E. coli ATCC 25922, or P. aeruginosa ATCC 27853 were added to the wells in full strength Mueller Hinton broth (BBL 11443) from a mid-log culture. The inoculum is standardized spectrophotometrically at 600 nm and is verified by colony counts. The plates are incubated for 16-20 hours at 37° C., and the minimal inhibitory concentration (MIC) for each peptide is determined. Minimal inhibitory concentration is defined as the lowest concentration of peptide which produces a clear well in the microtiter plate. The minimal inhibitory concentration of each of (SEQ ID NO:1) through (SEQ ID NO:3), (SEQ ID NO:5), (SEQ ID NO:6), (SEQ ID NO:9) through (SEQ ID NO:11), and (SEQ ID NO:17) is given in Table I below.
# [2] = tested on: S. aureus strain ATCC 25923; conditions: S. aureus ATCC 25923; Mueller Hinton broth, 16-20 hours at 37° C.; lowest concentration giving a clear well
# Excerpt: as §1
# E.coli ATCC strain 25922 = conditions: E. coli ATCC 25922; Mueller Hinton broth, 16-20 hours at 37° C.; lowest concentration giving a clear well
# Excerpt: as §1
Substance,Minimal Inhibitory Concentration P. aeruginosa [1],Minimal Inhibitory Concentration S. aureus [2],Minimal Inhibitory Concentration E. coli (E.coli ATCC strain 25922)
Ac-KLLKKLKKLLKLL-NH2 [X-(SEQ ID NO: 3)-NH2],16 µg/mL,64 µg/mL,"8,16 μg/ml"
LKKLKKLLKLL-NH2 [(SEQ ID NO.: 1)-NH2],"8,16 μg/ml","64,128 μg/ml","8,16 μg/ml"
Ac-LKKLKKLLKLL-NH2 [X-(SEQ ID NO: 1)-NH2],"4,8 μg/ml",16 µg/mL,4 µg/mL
Ac-LKLLKKLLKKPKKLLKKL-NH2 [X-(SEQ ID NO: 10)-NH2],16 µg/mL,"16,32 μg/ml",64 µg/mL
Ac-LKKLLKKLKKL-NH2 [X-(SEQ ID NO: 17)-NH2],"8,16 μg/ml",256 µg/mL,"32,64 μg/ml"
Ac-LKLLKKLLKKNKKLLKKL-NH2 [X-(SEQ ID NO: 9)-NH2],8 µg/mL,16 µg/mL,64 µg/mL
LKKLLKKLKKL-NH2 [(SEQ ID NO: 17)-NH2],"32,64 μg/ml",> 256 µg/mL,"64,128 μg/ml"
KLLKKLKKLLKLL-NH2 [(SEQ ID NO.:3)-NH2],16 µg/mL,64 µg/mL,–
Ac-KKLLKKLKKLLKKLRR-NH2 [X-(SEQ ID NO: 5)-NH2],8 µg/mL,4 µg/mL,32 µg/mL
Ac-LLKKLKKLLKLL-NH2 [X-(SEQ ID NO: 2)-NH2],16 µg/mL,16 µg/mL,"8,16 μg/ml"
LLKKLKKLLKLL-NH2 [(SEQ ID NO.:2)-NH2],16 µg/mL,16 µg/mL,"8,16 μg/ml"

# Reference: patent US5470950A, “Biologically active amphiphilic peptide compositions and uses therefor” (Magainin Pharmaceuticals Inc., priority 1994, dated 1995)
